Assay results reported in ChEMBL document CHEMBL1150049, “Isolation and characterization of an antiviral flavonoid from Waldsteinia fragarioides” (J Nat Prod, 1992).
The source made the active and inactive calls. The rule behind the calls is not given here.

What was measured:
[1] = test system: Human alphaherpesvirus 1; test: Antiviral activity against HSV1 infected in african green monkey Vero cells assessed as suppression of plaque formation at 40 ug/ml by plaque-reduction assay; format: functional, organism-based
[2] = test system: Vero; test: Cytotoxicity against african green monkey Vero cells at 250 ug/ml; format: cell-based; conditions: chlorocebus sabaeus

O=c1c(O[C@@H]2O[C@H](CO)[C@@H](O)[C@H](O)[C@H]2O)c(-c2ccc(O)c(O)c2)oc2cc(O)cc(O)c12 [ISOQUERCETIN]
Activity [1]: Active
Activity [2]: Toxic
